What is called IC50 is the concentration at which inhibition is half-maximal.

Consider 41 molecules from ChEMBL document CHEMBL4251633, “Design, synthesis, biological evaluation and cocrystal structures with tubulin of chiral β-lactam bridged combretastatin A-4 analogues as potent antitumor agents” (Eur J Med Chem, 2018).

The source made the active and inactive calls. No cut-off for these calls is given here.

For assay [1], the system named is HeLa. The experiment in a line: Antiproliferative activity against human HeLa cells after 48 hrs by MTT assay. It counts as functional, cell-based. In general terms: Formazan colour is commonly taken as a measure of viable cells.
The subject of a further assay is A2780. The experiment in a line: cells. Conditions: Homo sapiens, A2780, 48 h.
In the next assay the test system is MDA-MB-231. The experiment in a line: Antiproliferative activity against human MDA-MB-231 cells after 48 hrs by MTT assay. It counts as functional, cell-based. The note with it: MDA-MB-231, 48 h.
In the next assay the test system is SK-OV-3. The experiment in a line: Antiproliferative activity against human SKOV3 cells after 48 hrs by MTT assay. The note with it: SK-OV-3, 48 h.
For a further assay, the species on record is Homo sapiens. The experiment in a line: Disruption of microtubule structure in human SKOV3 cells assessed as decrease in density at 50 nM after 24 hrs by DAPI staining based immunofluorescence assay. In kind it is cell-based.
The subject of assay [2] is HeLa. The experiment in a line: Inhibition of alpha-tubulin polymerization in human HeLa cells assessed as increase in ratio of supernatant faction to pellet fraction at 500 nM after 6 hrs by Western blot analysis. It counts as cell-based. For orientation: Immunoblotting shows a protein as a band on a membrane.

Description for A2780: Antiproliferative activity against human A2780 cells after 48 hrs by MTT assay

For `COc1ccc([C@H]2[C@@H](C)C(=O)N2c2cc(OC)c(OC)c(OC)c2)cc1O`, the half-inhibitory concentration (IC50) with HeLa [1], in the assay with A2780, in the assay on MDA-MB-231 and in the assay with SK-OV-3 was 31 to 63 nM each time.
For the molecule `C=CC(=O)Nc1cc([C@H]2C(=C)C(=O)N2c2cc(OC)c(OC)c(OC)c2)ccc1OC`, the IC50 with HeLa [1] was 125 nM; with A2780, 65 nM; in the assay on MDA-MB-231 it was 34 nM; in the assay on SK-OV-3, 63 nM.
For the molecule `COc1ccc([C@@H]2N(c3cc(OC)c(OC)c(OC)c3)C(=O)[C@]2(O)CO)cc1O`, the IC50 in the assay with HeLa [1] came out at 2100 nM; in the assay on A2780, 1540 nM; with MDA-MB-231 it was 2320 nM; with SK-OV-3, 2070 nM.
In the case of `C=C1C(=O)N(c2cc(OC)c(OC)c(OC)c2)[C@H]1c1ccc(OC)c(O[Si](C)(C)C(C)(C)C)c1`, the IC50 came to 657 nM in the assay on HeLa [1], 287 nM in the assay on A2780, 560 nM with MDA-MB-231 and 414 nM in the assay on SK-OV-3.
Regarding `COc1ccc([C@H]2[C@H](NC(C)=O)C(=O)N2c2cc(OC)c(OC)c(OC)c2)cc1O`, the IC50 in the assay with HeLa [1] worked out at 35 nM; in the assay with A2780, 33 nM; with MDA-MB-231, 47 nM; with SK-OV-3, 32 nM.
In the same order, the values of `COc1ccc([C@H]2[C@@H](C)C(=O)N2c2cc(OC)c(OC)c(OC)c2)cc1N` are 215 nM, 81 nM, 63 nM and 59 nM.
Turning to `C=C1C(=O)N(c2cc(OC)c(OC)c(OC)c2)[C@H]1c1ccc(OC)c(OC)c1`, the IC50 in the assay on HeLa [1] worked out at 3160 nM; with A2780, 854 nM; with MDA-MB-231, 1020 nM; in the assay with SK-OV-3 it was 2260 nM.
On to `CC(=O)O[C@H]1C(=O)[C@@]2(C)[C@H]([C@H](OC(=O)c3ccccc3)[C@]3(O)C[C@H](OC(=O)[C@H](O)[C@@H](NC(=O)c4ccccc4)c4ccccc4)C(C)=C1C3(C)C)[C@]1(OC(C)=O)CO[C@@H]1C[C@@H]2O`, for which the outcome in the assay filed under Homo sapiens was inactive. The “tubulin polymerization inhibition (active/inactive)” value in the assay on HeLa [2] was “inactive”.
In the case of `C=C1C(=O)N(c2cc(OC)c(OC)c(OC)c2)[C@H]1c1ccc(OC)c(OCC)c1`, the IC50 in the assay on HeLa [1] stood at 2030 nM; in the assay on A2780 it was 854 nM; with MDA-MB-231, 958 nM; with SK-OV-3 it was 1140 nM.
Turning to `COc1ccc([C@H]2[C@H](n3cc(CO)nn3)C(=O)N2c2cc(OC)c(OC)c(OC)c2)cc1O`, the 50% inhibitory concentration (IC50) in the assay with HeLa [1] was found to be 33 nM; with A2780, 15 nM; in the assay with MDA-MB-231 it was 28 nM; in the assay with SK-OV-3 it was 83 nM.
The like results for `C=C1C(=O)N(c2cc(OC)c(OC)c(OC)c2)[C@H]1c1ccc(OC)c(OCCC)c1` were, in that order, 6890 nM, 3420 nM, 5620 nM and 5260 nM.
For the molecule `C=C1C(=O)N(c2cc(OC)c(OC)c(OC)c2)[C@H]1c1ccc(OC)cc1`, the 50% inhibitory concentration (IC50) in the assay with HeLa [1], in the assay on A2780, with MDA-MB-231 and in the assay with SK-OV-3 was above 20000 nM each time.
For the molecule `C=C1C(=O)N(c2cc(OC)c(OC)c(OC)c2)[C@H]1c1ccc(OC)c(OCc2ccccc2)c1`, the 50% inhibitory concentration (IC50) in the assay with HeLa [1], in the assay on A2780, in the assay with MDA-MB-231 and in the assay on SK-OV-3 was above 20000 nM each time.
As to `C=C1C(=O)N(c2cc(OC)c(OC)c(OC)c2)[C@H]1c1ccc(OC)c(OC(C)=O)c1`, the IC50 in the assay on HeLa [1] was 116 nM; in the assay with A2780, 81 nM; in the assay with MDA-MB-231, 133 nM; with SK-OV-3, 104 nM.
On to `C=C1C(=O)N(c2cc(OC)c(OC)c(OC)c2)[C@H]1c1cccc(O)c1`, for which the IC50 with HeLa [1] worked out at 15000 nM; in the assay on A2780 it was 10500 nM; with MDA-MB-231 it was 6640 nM; in the assay on SK-OV-3, 14500 nM.
Take `COc1ccc([C@H]2/C(=C/c3ccc(C(C)(C)C)cc3)C(=O)N2c2cc(OC)c(OC)c(OC)c2)cc1O`: the IC50 in the assay on HeLa [1], in the assay with A2780, in the assay on MDA-MB-231 and in the assay on SK-OV-3 was above 20000 nM each time.
`C=C1C(=O)N(c2cccc(OC)c2)[C@H]1c1ccc(OC)c(O)c1`: the 50% inhibitory concentration (IC50) with HeLa [1] worked out at 2170 nM; in the assay on A2780 it was 677 nM; with MDA-MB-231 it was 1370 nM; in the assay on SK-OV-3, 1390 nM.
For `C=C1C(=O)N(c2cc(OC)c(OC)c(OC)c2)[C@H]1c1ccccc1`, the half-inhibitory concentration (IC50) in the assay with HeLa [1], with A2780, in the assay with MDA-MB-231 and with SK-OV-3 was above 20000 nM each time.
On to `C=C1C(=O)N(c2cc(OC)c(OC)c(OC)c2)[C@H]1c1ccc(C)cc1`, for which the IC50 with HeLa [1] is 209 nM; in the assay with A2780 it was 127 nM; with MDA-MB-231 it was 193 nM; in the assay on SK-OV-3, 265 nM.
As to `COc1ccc([C@H]2[C@H](NS(C)(=O)=O)C(=O)N2c2cc(OC)c(OC)c(OC)c2)cc1O`, the concentration for half-maximal inhibition (IC50) came to 192 nM in the assay with HeLa [1], 164 nM in the assay on A2780, 254 nM in the assay with MDA-MB-231 and 231 nM in the assay with SK-OV-3.
On to `C=C1C(=O)N(c2cc(OC)c(OC)c(OC)c2)[C@H]1c1ccc(OC)c(Cl)c1`, for which the 50% inhibitory concentration (IC50) in the assay on HeLa [1] stood at 371 nM; in the assay with A2780, 316 nM; in the assay with MDA-MB-231 it was 512 nM; in the assay with SK-OV-3, 341 nM.
Consider `COc1ccc([C@@H]2CC(=O)N2c2cc(OC)c(OC)c(OC)c2)cc1O`, for which the IC50 in the assay on HeLa [1] worked out at 30 nM; in the assay on A2780, 22 nM; with MDA-MB-231 it was 28 nM; with SK-OV-3, 24 nM.
With `C=C1C(=O)N(c2cc(OC)c(OC)c(OC)c2)[C@H]1c1ccc(OC)c(F)c1`, the half-maximal inhibitory concentration (IC50) in the assay with HeLa [1] was 131 nM; with A2780 it was 121 nM; in the assay on MDA-MB-231, 112 nM; in the assay with SK-OV-3 it was 136 nM.
In the same order, the values of `C=C1C(=O)N(c2cc(OC)c(OC)c(OC)c2)[C@H]1c1ccc(OC)c(OC(C)C)c1` are above 20000 nM, 11300 nM, 15900 nM and 18000 nM.
In the same order, the values of `COc1ccc([C@H]2[C@@H](OC)C(=O)N2c2cc(OC)c(OC)c(OC)c2)cc1O` are 1790 nM, 1220 nM, 1960 nM and 2210 nM.
Consider `COc1ccc([C@H]2/C(=C/c3ccccc3)C(=O)N2c2cc(OC)c(OC)c(OC)c2)cc1O`, for which the IC50 in the assay with HeLa [1] was 4730 nM; in the assay with A2780 it was 2540 nM; with MDA-MB-231, 3160 nM; in the assay on SK-OV-3, 2990 nM.
In the same order, the values of `C=C1C(=O)N(c2ccccc2)[C@H]1c1ccccc1` are above 20000 nM, above 20000 nM, above 20000 nM and above 20000 nM.
Regarding `C=C1C(=O)N(c2cc(OC)cc(OC)c2)[C@H]1c1ccc(OC)c(O)c1`, the IC50 with HeLa [1] worked out at 295 nM; in the assay with A2780 it was 112 nM; in the assay with MDA-MB-231, 125 nM; with SK-OV-3, 175 nM.
In the same order, the values of `C=C1C(=O)N(c2cc(OC)c(OC)c(OC)c2)[C@H]1c1ccc(OC)c(N)c1` are 32 nM, 31 nM, 40 nM and 36 nM.
In the same order, the values of `C=C1C(=O)N(c2ccc(OC)cc2)[C@H]1c1ccc(OC)c(O)c1` are above 20000 nM, above 20000 nM, above 20000 nM and above 20000 nM.
For `COc1ccc([C@@H]2[C@H](C)C(=O)N2c2cc(OC)c(OC)c(OC)c2)cc1O`, the 50% inhibitory concentration (IC50) amounted to 3920 nM with HeLa [1], 5750 nM in the assay with A2780, 5140 nM in the assay on MDA-MB-231 and 3270 nM in the assay on SK-OV-3.
Take `COc1ccc([C@H]2[C@@H](OC(=O)CCC(=O)O)C(=O)N2c2cc(OC)c(OC)c(OC)c2)cc1O`: the half-maximal inhibitory concentration (IC50) with HeLa [1] was 178 nM; with A2780, 79 nM; in the assay with MDA-MB-231, 102 nM; in the assay with SK-OV-3, 210 nM.
Turning to `COc1ccc([C@@H]2[C@@H](C)C(=O)N2c2cc(OC)c(OC)c(OC)c2)cc1O`, the half-maximal inhibitory concentration (IC50) turned out to be 807 nM in the assay with HeLa [1], 771 nM with A2780, 1080 nM in the assay on MDA-MB-231 and 650 nM in the assay with SK-OV-3.
In the case of `COc1ccc([C@H]2[C@H](NC(=O)c3ccccc3)C(=O)N2c2cc(OC)c(OC)c(OC)c2)cc1O`, the concentration for half-maximal inhibition (IC50) with HeLa [1] worked out at 24 nM; in the assay with A2780, 27 nM; in the assay with MDA-MB-231, 47 nM; in the assay with SK-OV-3 it was 45 nM.
For `COc1ccc([C@H]2[C@@H](CO)C(=O)N2c2cc(OC)c(OC)c(OC)c2)cc1N`, the IC50 is 328 nM in the assay on HeLa [1], 327 nM in the assay with A2780, 107 nM in the assay on MDA-MB-231 and 54 nM in the assay on SK-OV-3.
As for `COc1ccc([C@H]2[C@H](CO)C(=O)N2c2cc(OC)c(OC)c(OC)c2)cc1N`, the half-inhibitory concentration (IC50) with HeLa [1] came to 44 nM; in the assay on A2780, 35 nM; in the assay with MDA-MB-231, 27 nM; with SK-OV-3 it was 8 nM.
In the same order, the values of `COC[C@@]1(OC)C(=O)N(c2cc(OC)c(OC)c(OC)c2)[C@H]1c1ccc(OC)c(O)c1` are above 20000 nM, 17700 nM, above 20000 nM and above 20000 nM.
In the case of `COc1ccc([C@H]2[C@H](C)C(=O)N2c2cc(OC)c(OC)c(OC)c2)cc1N`, the concentration for half-maximal inhibition (IC50) in the assay on HeLa [1] amounted to 35 nM; in the assay with A2780, 21 nM; in the assay with MDA-MB-231 it was 17 nM; with SK-OV-3, 8 nM.
The like results for `COc1ccc([C@H]2[C@H](Br)C(=O)N2c2cc(OC)c(OC)c(OC)c2)cc1O` were, in that order, 13 nM, 8 nM, 10 nM and 9 nM.
On to `C=C1C(=O)N(c2cc(OC)c(OC)c(OC)c2)[C@H]1c1ccc(OC)c(OS(=O)(=O)c2ccc(C)cc2)c1`, for which the half-inhibitory concentration (IC50) with HeLa [1] is 17800 nM; with A2780, above 20000 nM; in the assay on MDA-MB-231 it was 12800 nM; with SK-OV-3, 12100 nM.
As for `C=C1C(=O)N(c2cc(OC)c(OC)c(OC)c2)[C@H]1c1cc(OC)c(OC)c(OC)c1`, the IC50 came out at 547 nM in the assay on HeLa [1], 215 nM in the assay with A2780, 784 nM with MDA-MB-231 and 365 nM in the assay on SK-OV-3.
